Laboratory results reported in article PMC9246869, “Allosteric inhibition of PPM1D serine/threonine phosphatase via an altered conformational state” (Nature Communications, 2022).
Values joined by “and” are separate entries in the source; they are usually repeats but may differ in a detail not shown here. Identical values can stand only once.

How the values were obtained:
PPM1DΔflap = molecular target: T1, PPM1DΔflap (Homo sapiens, UniProt O15297, DEL219-231/DEL235-284/E287S/S285N); experiment: Differential scanning fluorimetry (DSF); assay type: binding; conditions: PPM1D Dflap, individual trials; in °C (unit assumed)
T1 construct: PPM1D1–218-GGSNGS-288–420 (PPM1D∆flap); His(6)-SUMO (N, cleaved yes); made in house; host or cells: E. coli BL21 (DE3)
T1 sequence (O15297 with tags, fused parts or gaps DEL219-231/DEL235-284/S285N/E287S): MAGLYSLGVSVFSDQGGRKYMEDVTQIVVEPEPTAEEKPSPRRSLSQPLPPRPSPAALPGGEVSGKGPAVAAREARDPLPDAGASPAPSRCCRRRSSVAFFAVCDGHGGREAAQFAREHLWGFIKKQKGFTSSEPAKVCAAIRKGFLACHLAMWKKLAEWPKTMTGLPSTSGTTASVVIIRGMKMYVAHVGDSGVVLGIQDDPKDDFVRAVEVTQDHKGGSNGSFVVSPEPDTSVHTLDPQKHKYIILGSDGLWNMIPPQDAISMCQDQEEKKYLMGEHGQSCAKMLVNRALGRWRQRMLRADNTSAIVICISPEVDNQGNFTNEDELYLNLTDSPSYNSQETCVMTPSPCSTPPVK
Protocol: (§1) The purified protein constructs were mixed in the assay buffer containing 25 mM HEPES pH 7.5, 10 mM MgCl2, 150 mM NaCl. The sample preparation for the DSF assay included incubating the protein constructs (final concentration 0.2–0.4 mg/mL) with either DMSO alone (control) or with 40 µM GSK2830371 for 30 min before the addition of the Sypro orange dye (final concentration 10×). The final reaction volume of 10 µL was pipetted into a 384 multi-well clear plate (Light Cycler 480), sealed using a foil and spun down at 1000 × g for 2 min. The fluorescence emission intensity of the Sypro Orange dye was monitored in a LightCycler-480 instrument by running the Protein Melt program. The program was run in a continuous acquisition mode from 25 °C to 95 °C with a ramp rate of 0.06 °C/s (with 10 acquisitions/°C). The data (first derivative of the fluorescence signal as a function of temperature) was analyzed using the LightCycler-480 software for measuring the Tm values with and without the compound. A separate control with buffer alone and buffer with compound was run in the same plate to subtract out the potential interactions of the buffer components and/or the compound with the dye.

PPM1DΔhinge = molecular target: T2, PPM1DΔhinge (Homo sapiens, UniProt O15297, DEL155-163/G166S/M164G/T165G); experiment: Differential scanning fluorimetry (DSF); assay type: binding; conditions: PPM1D Dhinge, in °C (unit assumed)
T2 construct: PPM1D1–154-GGS-167–420 (PPM1D∆hinge); His(6)-SUMO (N, cleaved yes); made in house; host or cells: E. coli BL21 (DE3)
T2 sequence (O15297 with tags, fused parts or gaps DEL155-163/M164G/T165G/G166S): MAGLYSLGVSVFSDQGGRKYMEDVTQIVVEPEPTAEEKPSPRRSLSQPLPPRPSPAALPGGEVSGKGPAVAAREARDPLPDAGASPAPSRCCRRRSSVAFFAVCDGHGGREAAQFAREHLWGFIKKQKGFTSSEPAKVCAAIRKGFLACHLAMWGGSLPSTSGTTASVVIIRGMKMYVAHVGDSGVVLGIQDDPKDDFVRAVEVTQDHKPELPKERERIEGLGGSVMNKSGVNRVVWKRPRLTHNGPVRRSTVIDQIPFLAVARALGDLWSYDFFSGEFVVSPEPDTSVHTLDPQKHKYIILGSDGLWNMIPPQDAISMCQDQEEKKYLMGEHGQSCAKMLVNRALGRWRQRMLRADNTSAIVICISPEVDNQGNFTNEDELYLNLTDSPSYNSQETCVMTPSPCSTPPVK
Protocol: as §1

Cc1ncc(Cl)cc1NCc1ccc(C(=O)N[C@@H](CC2CCCC2)C(=O)NC2CC2)s1 [GSK2830371]
DSF melting temperature with GSK2830371 (PPM1DΔflap): 63.0141 and 62.619 and 62.5754 and 62.548
DSF melting temperature with GSK2830371, Average (PPM1DΔhinge; average of 4 trials): 55.5129
DSF melting temperature with GSK2830371 (PPM1DΔhinge; individual trials): 55.7617 and 55.9693 and 55.1773 and 55.1434
